In ChEMBL document CHEMBL1177720, “Selective hexapeptide agonists and antagonists for human complement C3a receptor” (J Med Chem, 2010):
pEC50, pIC50: −log10 of the molar value. Calls of active or inactive are those of the source. The rule behind the calls is not given here. Numbered stars: 1 amine (or outer) side, 2 acyl side, 3 side chain; on linkers, the order of the positions; unused ones are H or OH. Square brackets hold non-standard residues; d marks the D form. Peptide text beside a SMILES is read from it. Orn(Me) = CN(CCC[C@H](N[*:1])C(=O)[*:2])[*:3]; Cha = N[C@@H](CC1CCCCC1)C(=O)O

What was measured:
[1] = biological target: T1, C3a anaphylatoxin chemotactic receptor (Homo sapiens, UniProt Q16581); assay: Agonist activity at human C3a receptor in human U937 cells assessed as induction of intracellular calcium release; type: functional, cell-based, U-937; conditions: for pEC50: read-out: EC50
T1 sequence (Q16581 whole entry): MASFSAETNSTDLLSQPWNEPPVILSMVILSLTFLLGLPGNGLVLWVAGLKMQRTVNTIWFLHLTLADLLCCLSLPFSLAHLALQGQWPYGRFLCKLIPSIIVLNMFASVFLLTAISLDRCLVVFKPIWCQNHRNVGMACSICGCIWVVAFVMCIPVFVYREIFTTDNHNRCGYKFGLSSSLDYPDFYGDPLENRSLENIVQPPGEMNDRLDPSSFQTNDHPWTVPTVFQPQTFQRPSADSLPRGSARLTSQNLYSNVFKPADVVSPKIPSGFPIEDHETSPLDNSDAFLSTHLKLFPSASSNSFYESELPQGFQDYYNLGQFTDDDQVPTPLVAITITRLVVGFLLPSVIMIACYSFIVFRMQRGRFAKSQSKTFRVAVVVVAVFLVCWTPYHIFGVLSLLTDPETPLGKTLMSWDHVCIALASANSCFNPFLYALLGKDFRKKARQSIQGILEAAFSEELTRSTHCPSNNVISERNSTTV

[2] = biological target: T2, C5a anaphylatoxin chemotactic receptor 1 (Homo sapiens, UniProt P21730); assay: Displacement of [125I-C5a] from C5a receptor in human PBMC by scintillation counting
T2 sequence (P21730 whole entry): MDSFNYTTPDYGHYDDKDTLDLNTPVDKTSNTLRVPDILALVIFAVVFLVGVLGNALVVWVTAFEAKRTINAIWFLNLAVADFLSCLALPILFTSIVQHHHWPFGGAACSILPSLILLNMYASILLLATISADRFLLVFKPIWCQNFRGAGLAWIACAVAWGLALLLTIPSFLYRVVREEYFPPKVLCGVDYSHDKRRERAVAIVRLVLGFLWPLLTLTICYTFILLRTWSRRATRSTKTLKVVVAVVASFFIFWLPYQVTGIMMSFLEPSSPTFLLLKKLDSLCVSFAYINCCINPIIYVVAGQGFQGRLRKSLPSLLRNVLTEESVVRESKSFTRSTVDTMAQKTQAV

[3] = biological target: T1, C3a anaphylatoxin chemotactic receptor; assay: Displacement of [125I-C3a] from C3a receptor in human PBMC by scintillation counting; conditions: for pIC50: read-out: IC50; for IC50: read-out: pIC50 (converted)
[4] = biological target: T3, C5a anaphylatoxin chemotactic receptor 1 (Homo sapiens) (UniProt P21730); assay: Displacement of […] from C5a receptor in human PBMC at 1 mM by scintillation counting
T3 sequence (whole entry): T2 sequence (P21730 whole entry)

[5] = biological target: T4, C3a anaphylatoxin chemotactic receptor (Homo sapiens) (UniProt Q16581); assay: Agonist activity at human C3a receptor in human U937 cells assessed as induction of intracellular calcium release at 1 mM; type: functional, cell-based; conditions: U-937
T4 sequence (whole entry): T1 sequence (Q16581 whole entry)

[6] = biological target: T4, C3a anaphylatoxin chemotactic receptor (Homo sapiens); assay: Agonist activity at human C3a receptor in human U937 cells assessed as induction of intracellular calcium release at 10 uM; type: functional, cell-based; conditions: U-937
[7] = biological target: T4, C3a anaphylatoxin chemotactic receptor (Homo sapiens); assay: Displacement of [125I-C3a] from C3a receptor in human PBMC at 1 mM by scintillation counting

## CSCC[C@H](NC(=O)[C@H](CC(=O)O)N(C)C(=O)[C@H](CCCCN)NC(=O)[C@H](Cc1ccccc1)NC(=O)[C@H](CO)NC(=O)[C@@H](N)Cc1ccc(O)cc1)C(=O)N1CCC[C@H]1C(=O)N[C@@H](CC(C)C)C(=O)N[C@H](C)C(=O)N[C@@H](CCCNC(=N)N)C(=O)O
[1]
  pEC50: 5.85
[2]
  pIC50: 4.54
[3]
  pIC50: 6.13

## CC(C)C[C@H](NC(=O)[C@@H](NC(=O)[C@H](Cc1c[nH]c2ccccc12)NC(=O)[C@@H](N)Cc1c[nH]c2ccccc12)[C@@H](C)O)C(=O)N[C@@H](C)C(=O)N[C@@H](CCCNC(=N)N)C(=O)O (H-WWTLAR-OH)
[4]
  Activity: inactive
[1]
  pEC50: 6.04
[3]
  pIC50: 6.61

## CC(C)C[C@H](NC(=O)[C@H](C)NC(=O)[C@H](CC(C)C)NC(=O)[C@@H](N)Cc1cnc[nH]1)C(=O)N[C@@H](C)C(=O)N[C@@H](CCCNC(=N)N)C(=O)O (H-HLALAR-OH)
[4]
  Activity: inactive
[5]
  Activity: inactive
[3]
  pIC50: 5.20
[6]
  Activity: inactive

## CC(C)C[C@H](NC(=O)CNC(=O)[C@H](CC(C)C)NC(=O)[C@@H](N)Cc1cnc[nH]1)C(=O)N[C@@H](C)C(=O)N[C@@H](CCCNC(=N)N)C(=O)O (H-HLGLAR-OH)
[4]
  Activity: inactive
[1]
  pEC50: 5.42
[3]
  pIC50: 5.23

## CC[C@H](C)[C@H](NC(=O)[C@@H](N)Cc1ccccc1)C(=O)N1CCC[C@H]1C(=O)N[C@@H](CC(C)C)C(=O)N[C@@H](C)C(=O)N[C@@H](CCCNC(=N)N)C(=O)O (H-FIPLAR-OH)
[4]
  Activity: inactive
[1]
  pEC50: 6.02
[3]
  pIC50: 9.74
  IC50: 229 nM

## CSCC[C@H](NC(=O)[C@@H]1CCCN1C(=O)[C@H](CCCCN)NC(=O)[C@H](Cc1ccccc1)NC(=O)[C@H](CO)NC(=O)[C@@H](N)Cc1ccc(O)cc1)C(=O)N1CCC[C@H]1C(=O)N[C@@H](CC(C)C)C(=O)N(C)[C@H](C)C(=O)N[C@@H](CCCN=C(N)N)C(=O)O
[1]
  pEC50: 6.89
[2]
  pIC50: 5.70
[3]
  pIC50: 7.89

## CC(C)C[C@H](NC(=O)[C@@H]1CCCN1C(=O)[C@@H](N)Cc1ccc(O)cc1)C(=O)N1CCC[C@H]1C(=O)N[C@@H](CCCNC(=N)N)C(=O)O (H-YPLPR-OH)
[4]
  Activity: inactive
[5]
  Activity: inactive
[7]
  Activity: inactive
[6]
  Activity: inactive

## CC(C)C[C@H](NC(=O)[C@@H]1CCCN1C(=O)[C@H](Cc1c[nH]c2ccccc12)NC(=O)[C@@H](N)Cc1ccccc1)C(=O)N[C@@H](C)C(=O)N[C@@H](CCCNC(=N)N)C(=O)O (H-FWPLAR-OH)
[4]
  Activity: inactive
[1]
  pEC50: 6.24
[3]
  pIC50: 6.56

## CC(C)C[C@H](NC(=O)[C@@H](NC(=O)[C@H](Cc1ccc(O)cc1)NC(=O)[C@@H](N)Cc1ccccc1)[C@@H](C)O)C(=O)N[C@@H](C)C(=O)N[C@@H](CCCNC(=N)N)C(=O)O (H-FYTLAR-OH)
[4]
  Activity: inactive
[1]
  pEC50: 5.32
[3]
  pIC50: 6.78

## CC(C)C[C@H](NC(=O)[C@H](CC(=O)O)NC(=O)[C@H](C)NC(=O)[C@H](CC(C)C)NC(=O)[C@@H](NC(=O)[C@H](CC(C)C)NC(=O)[C@@H](N)Cc1cnc[nH]1)[C@@H](C)O)C(=O)N[C@@H](CC(C)C)C(=O)N[C@@H](CS)C(=O)N[C@@H](CS)C(=O)N[C@@H](CC(C)C)C(=O)N[C@@H](CO)C(=O)N[C@@H](CC(C)C)C(=O)N1CCC[C@H]1C(=O)N[C@@H](Cc1ccccc1)C(=O)O (H-HLTLADLLCCLSLPF-OH)
[1]
  pEC50: 5.74
[1]; read-out: pEC50 (converted)
  EC50: 1580 nM
[2]
  pIC50: 6.25
[3]
  pIC50: 6.60

## CC(C)C[C@H](NC(=O)[C@@H]1CCCN1C(=O)[C@@H](N)Cc1c[nH]c2ccccc12)C(=O)N1CCC[C@H]1C(=O)N[C@@H](CCCNC(=N)N)C(=O)O (H-WPLPR-OH)
[4]
  Activity: inactive
[5]
  Activity: inactive
[3]
  pIC50: 4.57
  IC50: 31600 nM
[6]
  Activity: inactive

## CSCC[C@H](NC(=O)[C@@H]1CCCN1C(=O)[C@H](CCCCN)NC(=O)[C@H](Cc1cnc[nH]1)NC(=O)[C@H](CO)NC(=O)[C@@H](N)Cc1ccc(O)cc1)C(=O)N1CCC[C@H]1C(=O)N[C@@H](CC(C)C)C(=O)N[C@H](C)C(=O)N[C@@H](CCCNC(=N)N)C(=O)O
[4]
  Activity: inactive
[7]
  Activity: inactive

## CC(=O)N[C@@H](Cc1ccccc1)C(=O)N[C@H]1CCCNC(=O)[C@H](CCCN=C(N)N)NC(=O)[C@H](Cc2c[nH]c3ccccc23)NC(=O)[C@@H](CC2CCCCC2)NC(=O)[C@@H]2CCCN2C1=O
[5]
  Activity: inactive
[7]
  Activity: inactive

## C[C@H](NC(=O)[C@H](Cc1ccccc1)NC(=O)[C@@H]1CCCN1C(=O)[C@H](CCCCN)NC(=O)[C@@H](N)Cc1ccccc1)C(=O)N[C@@H](CCCNC(=N)N)C(=O)O (H-FKPFAR-OH)
[5]
  Activity: inactive

## CC(C)C[C@H](NC(=O)[C@@H](NC(=O)[C@H](CC(C)C)NC(=O)[C@@H](N)CCCNC(=N)N)[C@@H](C)O)C(=O)N[C@@H](C)C(=O)N[C@@H](CCCNC(=N)N)C(=O)O (H-RLTLAR-OH)
[5]
  Activity: inactive

## CC(C)C[C@H](NC(=O)[C@@H](NC(=O)[C@H](Cc1c[nH]c2ccccc12)NC(=O)[C@@H](N)Cc1ccccc1)[C@@H](C)O)C(=O)N[C@@H](C)C(=O)N[C@@H](CCCNC(=N)N)C(=O)O (H-FWTLAR-OH)
[4]
  Activity: inactive
[1]
  pEC50: 6.43
[3]
  pIC50: 7.09

## CC(C)C[C@H](NC(=O)[C@@H]1CCCN1C(=O)[C@H](CCCCN)NC(=O)[C@@H](N)Cc1ccccc1)C(=O)N[C@@H](CC1CCCCC1)C(=O)N[C@@H](CCCNC(=N)N)C(=O)O (H-FKPL[Cha]R-OH)
[5]
  Activity: inactive

## CC(C)C[C@H](NC(=O)CNC(=O)[C@H](CC(C)C)NC(=O)[C@@H](N)Cc1ccccc1)C(=O)N[C@@H](C)C(=O)N[C@@H](CCCNC(=N)N)C(=O)O (H-FLGLAR-OH)
[4]
  Activity: inactive
[1]
  pEC50: 6.28
[3]
  pIC50: 6.80

## CC[C@H](C)[C@H](NC(=O)[C@H](C)NC(=O)[C@H](CC(N)=O)NC(=O)[C@@H](NC(=O)[C@@H](NC(=O)[C@H](CCCNC(=N)N)NC(=O)[C@H](CCCCN)NC(=O)[C@H](C)NC(=O)[C@H](CCC(=O)O)NC(=O)[C@H](Cc1ccccc1)NC(=O)[C@H](C)NC(=O)[C@@H](NC(=O)[C@@H](NC(=O)[C@@H](N)Cc1c[nH]c2ccccc12)C(C)C)[C@@H](C)O)[C@@H](C)O)[C@@H](C)CC)C(=O)N[C@@H](Cc1c[nH]c2ccccc12)C(=O)O (H-WVTAFEAKRTINAIW-OH)
[1]
  pEC50: 4.62
[2]
  pIC50: 5.77
[3]
  pIC50: 5.80

## CC(C)C[C@H](NC(=O)CNC(=O)[C@H](CC(C)C)NC(=O)[C@H](CCCCN)NC(=O)[C@H](CO)NC(=O)[C@H](C)NC(=O)[C@H](CCCN=C(N)N)NC(=O)[C@H](Cc1ccc(O)cc1)NC(=O)[C@H](CCCCN)NC(=O)[C@H](CCCCN)NC(=O)CNC(=O)[C@H](Cc1c[nH]c2ccccc12)NC(=O)[C@@H](N)Cc1c[nH]c2ccccc12)C(=O)N[C@@H](C)C(=O)N[C@@H](CCCN=C(N)N)C(=O)O (H-WWGKKYRASKLGLAR-OH)
[1]
  pEC50: 5.89
[3]
  pIC50: 8.70

## CNCCC[C@H](NC(=O)[C@@H](N)Cc1ccccc1)C(=O)N[C@H](C(=O)N[C@@H](CC(C)C)C(=O)N[C@@H](C)C(=O)N[C@@H](CCCNC(=N)N)C(=O)O)[C@@H](C)O (H-F[Orn(Me)]TLAR-OH)
[5]
  Activity: inactive

## CC(C)C[C@H](NC(=O)[C@@H](NC(=O)[C@H](CC(C)C)NC(=O)[C@@H](N)Cc1ccccc1)[C@@H](C)O)C(=O)N[C@@H](C)C(=O)N[C@@H](CCCNC(=N)N)C(=O)O (H-FLTLAR-OH)
[4]
  Activity: inactive
[1]
  pEC50: 6.49
[3]
  pIC50: 7.38

## CC(C)C[C@H](NC(=O)CNC(=O)[C@H](CC(C)C)NC(=O)[C@H](CCCCN)NC(=O)[C@H](CO)NC(=O)[C@H](C)NC(=O)[C@H](CCCNC(=N)N)NC(=O)[C@H](Cc1ccc(O)cc1)NC(=O)[C@H](CCCCN)NC(=O)[C@H](CCCCN)NC(=O)CNC(=O)[C@H](Cc1c[nH]c2ccccc12)NC(=O)[C@@H](N)Cc1c[nH]c2ccccc12)C(=O)N[C@@H](C)C(=O)N[C@@H](CCCNC(=N)N)C(=O)O (H-WWGKKYRASKLGLAR-OH)
[4]
  Activity: inactive

## CC(C)C[C@H](NC(=O)[C@@H](N)Cc1ccccc1)C(=O)N[C@H](C(=O)N[C@@H](CO)C(=O)N[C@@H](C)C(=O)N[C@@H](CCCNC(=N)N)C(=O)O)[C@@H](C)O (H-FLTSAR-OH)
[4]
  Activity: inactive
[5]
  Activity: inactive
[3]
  pIC50: 5.09

## CC(C)C[C@H](NC(=O)[C@@H]1CCCN1C(=O)[C@H](CCCCN)NC(=O)[C@@H](N)Cc1cnc[nH]1)C(=O)N[C@@H](C)C(=O)N[C@@H](CCCNC(=N)N)C(=O)O (H-HKPLAR-OH)
[5]
  Activity: inactive
